The source made the active and inactive calls. Cut-off read from the data, not from the text of the source: actives have a measured IC50 and inactives only a lower limit.

The assay deals with Envelope glycoprotein gp160 (Human immunodeficiency virus 1, UniProt Q6QLK5). The assay is described as follows: inhibitors of HIV fusion peptide binding, primary screen, biochemical, uHTS, fluorescence dequenching (AID 1986).
Sequence of Envelope glycoprotein gp160 (Q6QLK5 whole entry, the tested form may be a part): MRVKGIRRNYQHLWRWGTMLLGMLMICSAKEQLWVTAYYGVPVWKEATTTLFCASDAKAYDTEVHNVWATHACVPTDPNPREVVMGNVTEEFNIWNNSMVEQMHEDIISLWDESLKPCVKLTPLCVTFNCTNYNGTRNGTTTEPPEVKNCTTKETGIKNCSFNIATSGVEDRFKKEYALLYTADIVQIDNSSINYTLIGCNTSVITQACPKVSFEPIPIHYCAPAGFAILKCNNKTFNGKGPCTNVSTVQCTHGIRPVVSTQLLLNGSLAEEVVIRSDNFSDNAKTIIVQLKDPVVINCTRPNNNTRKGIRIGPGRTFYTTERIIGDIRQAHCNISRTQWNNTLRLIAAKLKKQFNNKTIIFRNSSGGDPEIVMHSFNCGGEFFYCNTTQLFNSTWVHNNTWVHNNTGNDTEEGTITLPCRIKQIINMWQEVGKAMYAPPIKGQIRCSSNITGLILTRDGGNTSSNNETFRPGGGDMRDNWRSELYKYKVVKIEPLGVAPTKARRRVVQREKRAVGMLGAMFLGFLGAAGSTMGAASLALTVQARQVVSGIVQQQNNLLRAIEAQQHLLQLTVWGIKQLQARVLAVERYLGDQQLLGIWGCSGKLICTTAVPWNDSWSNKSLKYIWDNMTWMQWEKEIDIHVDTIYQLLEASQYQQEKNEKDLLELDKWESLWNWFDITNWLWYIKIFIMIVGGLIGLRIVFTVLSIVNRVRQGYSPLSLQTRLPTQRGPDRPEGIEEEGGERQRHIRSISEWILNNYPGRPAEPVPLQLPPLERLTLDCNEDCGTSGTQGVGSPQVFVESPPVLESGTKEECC

Turning to `Cc1c(CCC(=O)O)c(=O)oc2c(C)c3occ(-c4ccc(Br)cc4)c3cc12`, the half-maximal inhibitory concentration (IC50) (in general, the concentration that inhibits the measured activity by half) was 21.3 µM (active).

For the origin of these results see ChEMBL document CHEMBL1201862, “PubChem BioAssay data set” (2004).
